This is an account of results in US4954487A, “Penetrating topical pharmaceutical compositions” (The Procter & Gamble Company, priority 1989, dated 1990).

Structures are written as SMILES.

This data set is described as follows: Solubility of envelope-disordering compounds in the diol compounds. As to conditions: typical compositions.

As to `CCCCCCCCCCO` [n-decanol], the “soluble in the diol compounds / same compositions up to” value is “up to 50 % by weight”.
